Here are results for 20 compounds from US11180474B2 (BRISTOL-MYERS SQUIBB COMPANY, priority 2016, dated 2021).

In assay [1] the target is T1, human TLR7 (Homo sapiens, UniProt Q9NYK1).
T1 construct: host or cells: HEK-Blue cells
T1 sequence (Q9NYK1 27-1049): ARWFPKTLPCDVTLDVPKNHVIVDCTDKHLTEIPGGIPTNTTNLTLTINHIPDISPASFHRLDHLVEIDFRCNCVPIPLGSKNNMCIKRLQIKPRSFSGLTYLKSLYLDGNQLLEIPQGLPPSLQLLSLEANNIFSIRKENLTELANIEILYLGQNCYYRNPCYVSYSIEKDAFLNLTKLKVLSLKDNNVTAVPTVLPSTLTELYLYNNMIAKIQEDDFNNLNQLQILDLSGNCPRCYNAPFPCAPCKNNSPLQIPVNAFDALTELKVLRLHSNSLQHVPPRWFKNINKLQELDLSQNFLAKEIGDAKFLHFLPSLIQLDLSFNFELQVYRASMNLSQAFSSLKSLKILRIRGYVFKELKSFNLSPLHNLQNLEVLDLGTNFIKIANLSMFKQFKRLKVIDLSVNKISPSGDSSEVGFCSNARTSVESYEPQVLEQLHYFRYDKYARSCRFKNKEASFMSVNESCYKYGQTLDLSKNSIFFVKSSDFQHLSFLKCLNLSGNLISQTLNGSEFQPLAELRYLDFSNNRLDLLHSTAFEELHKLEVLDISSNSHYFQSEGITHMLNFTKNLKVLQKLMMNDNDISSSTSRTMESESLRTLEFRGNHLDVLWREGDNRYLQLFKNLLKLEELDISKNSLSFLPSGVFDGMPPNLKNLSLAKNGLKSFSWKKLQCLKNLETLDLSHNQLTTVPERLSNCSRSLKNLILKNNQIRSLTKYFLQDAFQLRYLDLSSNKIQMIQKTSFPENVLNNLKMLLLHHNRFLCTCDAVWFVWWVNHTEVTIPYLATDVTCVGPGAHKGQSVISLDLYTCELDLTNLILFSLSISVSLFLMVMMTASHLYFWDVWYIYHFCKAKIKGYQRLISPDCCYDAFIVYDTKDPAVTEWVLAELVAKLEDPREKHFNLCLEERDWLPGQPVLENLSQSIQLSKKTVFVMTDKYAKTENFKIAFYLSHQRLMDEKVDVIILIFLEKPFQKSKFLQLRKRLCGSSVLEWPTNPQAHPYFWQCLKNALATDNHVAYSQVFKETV
The experiment in a line: TLR7 inhibition reporter assay (HEK-Blue cells, SEAP reporter, gardiquimod stimulation). The assay is classed as cell-based. The settings on record: HEK-Blue cells overexpressing human TLR7, gardiquimod 7.5 μM. The method in brief: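 22 h, 37° C, 5% CO2 incubation; compounds 0.05 nM-50 μM final; TLR7 cells 15000/well, TLR8 20,000/well. Readout: SEAP via HEK-Blue Detection medium. % inhibition = signal reduction versus agonist + DMSO wells, referenced to known inhibitor.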
For orientation: In a reporter assay the amount or activity of a reporter protein is the signal.

Assay [2] addresses T2, human TLR9 (Homo sapiens, UniProt Q9NR96).
T2 construct: host or cells: HEK-Blue cells
T2 sequence (Q9NR96 26-1032): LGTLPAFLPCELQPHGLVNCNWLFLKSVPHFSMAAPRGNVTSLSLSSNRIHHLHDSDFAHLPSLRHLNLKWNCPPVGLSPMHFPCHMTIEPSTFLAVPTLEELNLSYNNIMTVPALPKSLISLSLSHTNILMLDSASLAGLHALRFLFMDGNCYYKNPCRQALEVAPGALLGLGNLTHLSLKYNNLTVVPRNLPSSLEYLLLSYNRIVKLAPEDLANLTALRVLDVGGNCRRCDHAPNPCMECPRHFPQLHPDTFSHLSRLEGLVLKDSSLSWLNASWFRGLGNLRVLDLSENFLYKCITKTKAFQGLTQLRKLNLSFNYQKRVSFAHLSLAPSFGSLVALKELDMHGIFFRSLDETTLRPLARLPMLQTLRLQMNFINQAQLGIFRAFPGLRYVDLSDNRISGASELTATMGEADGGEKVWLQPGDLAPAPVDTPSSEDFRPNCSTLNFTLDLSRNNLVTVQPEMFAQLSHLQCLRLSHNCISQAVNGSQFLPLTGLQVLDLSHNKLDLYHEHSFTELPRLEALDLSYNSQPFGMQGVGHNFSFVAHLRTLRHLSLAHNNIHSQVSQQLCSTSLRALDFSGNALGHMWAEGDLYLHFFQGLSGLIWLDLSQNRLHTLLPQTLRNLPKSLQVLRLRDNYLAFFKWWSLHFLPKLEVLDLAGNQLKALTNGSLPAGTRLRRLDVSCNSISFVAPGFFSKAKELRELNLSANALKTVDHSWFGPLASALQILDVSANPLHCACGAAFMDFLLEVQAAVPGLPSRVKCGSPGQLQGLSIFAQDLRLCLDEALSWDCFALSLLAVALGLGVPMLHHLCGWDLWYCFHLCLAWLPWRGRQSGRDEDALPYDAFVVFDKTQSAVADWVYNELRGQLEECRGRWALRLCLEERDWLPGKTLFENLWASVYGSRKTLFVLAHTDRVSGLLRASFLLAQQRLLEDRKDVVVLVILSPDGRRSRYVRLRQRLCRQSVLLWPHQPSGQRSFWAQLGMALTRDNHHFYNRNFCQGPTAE
The assay can be described thus: TLR9 inhibition reporter assay (HEK-Blue cells, SEAP reporter, ODN2006 stimulation). Type of assay: cell-based. The settings on record: HEK-Blue cells overexpressing human TLR9, ODN2006 5 nM. The gist of the method:
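Compound treatment: 30 min, RT, 0.05 nM–50 μM final. Agonist: TLR7 gardiquimod 7.5 μM; TLR8 R848 15.9 μM; TLR9 ODN2006 5 nM. Incubation 22 h, 37 °C, 5% CO2. Readout SEAP, HEK-Blue Detection.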

Some results are limits rather than exact numbers.

For the compound `COc1ccc(-c2[nH]c3ccc(C4CCN(C5CCN(C6CCN(C)CC6)CC5)CC4)cc3c2C)cc1OC` [Example 81, 2-(3,4-dimethoxyphenyl)-3-methyl-5-(1″-methyl-[1,4′:1′,4″-terpiperidin]-4-yl)-1H-indole], the values for the 50% inhibitory concentration (IC50) in assay [1] and in assay [2] were 538 nM and 190 nM, respectively.

Turning to `CCCCN1CCC(N2CCC(c3ccc4[nH]c(-c5ccc(OC)c(OC)c5)c(C)c4c3)CC2)CC1` [Example 82, 5-(1′-butyl-[1,4′-bipiperidin]-4-yl)-2-(3,4-dimethoxyphenyl)-3-methyl-1H-indole], the results for the half-inhibitory concentration (IC50) in assay [1] and in assay [2] were 145 nM and 165 nM, respectively.

With `COc1ccc(-c2[nH]c3ccc(C4CCN(C5CCN(C6COC6)CC5)CC4)cc3c2C)cc1OC` [Example 83, 2-(3,4-dimethoxyphenyl)-3-methyl-5-(1′-(oxetan-3-yl)-[1,4′-bipiperidin]-4-yl)-1H-indole], the figures for the IC50 in assay [1] and in assay [2] were 2630 nM and 1550 nM, respectively.

For the compound `COc1ccc(-c2[nH]c3ccc(C4CCN(C5CCN(CC(C)C)C5)CC4)cc3c2C)cc1OC` (stereo not shown) [Example 85, 2-(3,4-dimethoxyphenyl)-5-(1-(1-isobutylpyrrolidin-3-yl)piperidin-4-yl)-3-methyl-1H-indole], the IC50 – broadly, the concentration at which inhibition is half-maximal – was 907 nM in assay [1] and 247 nM in assay [2].

Regarding `COc1ccc(-c2[nH]c3ccc(C4CCN(C5CCCN(C(C)C)CC5)CC4)cc3c2C)cc1OC` (stereo not shown) [Example 92, 2-(3,4-dimethoxyphenyl)-5-(1-(1-isopropylazepan-4-yl)piperidin-4-yl)-3-methyl-1H-indole], the IC50 in assay [1] amounted to 576 nM; in assay [2] it was 59 nM.

As to `COc1ccc(-c2[nH]c3ccc(C4CCN(C5CCCN(C6COC6)CC5)CC4)cc3c2C)cc1OC` (stereo not shown) [Example 96, 2-(3,4-dimethoxyphenyl)-3-methyl-5-(1-(1-(oxetan-3-yl)azepan-4-yl)piperidin-4-yl)-1H-indole], the IC50 in assay [1] was determined as 2530 nM; in assay [2] it was 186 nM.

Consider `COc1ccc(-c2[nH]c3ccc(C4CCN(CCNC(=O)OC(C)(C)C)CC4)cc3c2C)cc1OC` [Example 99, tert-butyl (2-(4-(2-(3,4-dimethoxyphenyl)-3-methyl-1H-indol-5-yl)piperidin-1-yl)ethyl)carbamate], for which the 50% inhibitory concentration (IC50) worked out at 938 nM in assay [1] and 1020 nM in assay [2].

As for `COc1ccc(-c2[nH]c3ccc(C4CCN(CCN)CC4)cc3c2C)cc1OC` [Example 100, 2-(4-(2-(3,4-dimethoxyphenyl)-3-methyl-1H-indol-5-yl)piperidin-1-yl)ethan-1-amine], the values for the half-maximal inhibitory concentration (IC50) in assay [1] and in assay [2] were 175 nM and 543 nM, respectively.

`COc1ccc(-c2[nH]c3ccc(C4CCN(CC5CCCCN5)CC4)cc3c2C)cc1OC` (stereo not shown) [Example 101, 2-(3,4-dimethoxyphenyl)-3-methyl-5-(1-(piperidin-2-ylmethyl)piperidin-4-yl)-1H-indole]: the IC50 came out at 1790 nM in assay [1] and 209 nM in assay [2].

Consider `CNCCCN1CCC(c2ccc3[nH]c(-c4ccc(OC)c(OC)c4)c(C)c3c2)CC1` [Example 102, 3-(4-(2-(3,4-dimethoxyphenyl)-3-methyl-1H-indol-5-yl)piperidin-1-yl)-N-methylpropan-1-amine], for which the IC50 worked out at 559 nM in assay [1] and 382 nM in assay [2].

Take `COc1ccc(-c2[nH]c3ccc(C4CCN(C5CCCNCC5)CC4)cc3c2C)cc1OC` (stereo not shown) [Example 103, 5-(1-(azepan-4-yl)piperidin-4-yl)-2-(3,4-dimethoxyphenyl)-3-methyl-1H-indole]: the half-inhibitory concentration (IC50) in assay [1] turned out to be 344 nM; in assay [2] it was 157 nM.

In the case of `COc1ccc(-c2[nH]c3ccc(C4CCN(C5CCNC5)CC4)cc3c2C)cc1OC` (stereo not shown) [Example 104, 2-(3,4-dimethoxyphenyl)-3-methyl-5-(1-(pyrrolidin-3-yl)piperidin-4-yl)-1H-indole], the values for the half-maximal inhibitory concentration (IC50) in assay [1] and in assay [2] were 2170 nM and 1050 nM, respectively.

Consider `COc1ccc(-c2[nH]c3ccc(C4CCN(C5CCCC(N)C5)CC4)cc3c2C)cc1OC` (stereo not shown) [Example 105, 3-(4-(2-(3,4-dimethoxyphenyl)-3-methyl-1H-indol-5-yl)piperidin-1-yl)cyclohexan-1-amine], for which the figures for the IC50 in assay [1] and in assay [2] were 144 nM and 385 nM, respectively.

With `COc1ccc(-c2[nH]c3ccc(C4CCN(C5CCCNC5)CC4)cc3c2C)cc1OC` (stereo not shown) [Example 106, 5-([1,3′-bipiperidin]-4-yl)-2-(3,4-dimethoxyphenyl)-3-methyl-1H-indole], the figures for the IC50 in assay [1] and in assay [2] were 905 nM and 307 nM, respectively.

Regarding `COc1ccc(-c2[nH]c3ccc(C4CCN(C[C@@H]5CCCN5)CC4)cc3c2C)cc1OC` [Example 107, (S)-2-(3,4-dimethoxyphenyl)-3-methyl-5-(1-(pyrrolidin-2-ylmethyl)piperidin-4-yl)-1H-indole], the 50% inhibitory concentration (IC50) in assay [1] is 1310 nM; in assay [2] it was 614 nM.

`COc1ccc(-c2[nH]c3ccc(C4CCN(C[C@H]5CCCN5)CC4)cc3c2C)cc1OC` [Example 108, (R)-2-(3,4-dimethoxyphenyl)-3-methyl-5-(1-(pyrrolidin-2-ylmethyl)piperidin-4-yl)-1H-indole]: the 50% inhibitory concentration (IC50) was 3540 nM in assay [1] and 861 nM in assay [2].

`COc1ccc(-c2[nH]c3ccc(C4CCN(CCN(C)C5COC5)CC4)cc3c2C)cc1OC` [Example 109, N-(2-(4-(2-(3,4-dimethoxyphenyl)-3-methyl-1H-indol-5-yl)piperidin-1-yl)ethyl)-N-methyloxetan-3-amine]: the IC50 was ≥ 50000 nM in assay [1] and 17000 nM in assay [2].

In the case of `COc1ccc(-c2[nH]c3ccc(C4CCN(CCN(C)CC(C)C)CC4)cc3c2C)cc1OC` [Example 110, N-(2-(4-(2-(3,4-dimethoxyphenyl)-3-methyl-1H-indol-5-yl)piperidin-1-yl)ethyl)-N,2-dimethylpropan-1-amine], the IC50 in assay [1] is 1120 nM; in assay [2] it was 288 nM.

With `CCN(C)CCN1CCC(c2ccc3[nH]c(-c4ccc(OC)c(OC)c4)c(C)c3c2)CC1` [Example 111, 2-(4-(2-(3,4-dimethoxyphenyl)-3-methyl-1H-indol-5-yl)piperidin-1-yl)-N-ethyl-N-methylethan-1-amine], the IC50 in assay [1] was found to be 387 nM; in assay [2], 1510 nM.

Turning to `COc1ccc(-c2[nH]c3ccc(C4CCN(CCN(C)CC5CC5)CC4)cc3c2C)cc1OC` [Example 112, N-(cyclopropylmethyl)-2-(4-(2-(3,4-dimethoxyphenyl)-3-methyl-1H-indol-5-yl)piperidin-1-yl)-N-methylethan-1-amine], the IC50 stood at 250 nM in assay [1] and 319 nM in assay [2].
